Source: patent US11274106B2, “Topoisomerase inhibitors with antibacterial and anticancer activity” (THE BOARD OF TRUSTEES OF THE UNIVERSITY OF ILLINOIS, priority 2017, dated 2022)
Values after ≈ are worked out from the molar mass of the structure shown.

How the values were obtained:
Top1 [1] = target: T1, Top1 (Homo sapiens, UniProt P11387); assay: Top1 degradation by Western blot, BT-474; assay type: cell-based; conditions: 50 μM for 2, 4, and 6 hours, then 30-minute drug-free media
T1 sequence (P11387 1-765): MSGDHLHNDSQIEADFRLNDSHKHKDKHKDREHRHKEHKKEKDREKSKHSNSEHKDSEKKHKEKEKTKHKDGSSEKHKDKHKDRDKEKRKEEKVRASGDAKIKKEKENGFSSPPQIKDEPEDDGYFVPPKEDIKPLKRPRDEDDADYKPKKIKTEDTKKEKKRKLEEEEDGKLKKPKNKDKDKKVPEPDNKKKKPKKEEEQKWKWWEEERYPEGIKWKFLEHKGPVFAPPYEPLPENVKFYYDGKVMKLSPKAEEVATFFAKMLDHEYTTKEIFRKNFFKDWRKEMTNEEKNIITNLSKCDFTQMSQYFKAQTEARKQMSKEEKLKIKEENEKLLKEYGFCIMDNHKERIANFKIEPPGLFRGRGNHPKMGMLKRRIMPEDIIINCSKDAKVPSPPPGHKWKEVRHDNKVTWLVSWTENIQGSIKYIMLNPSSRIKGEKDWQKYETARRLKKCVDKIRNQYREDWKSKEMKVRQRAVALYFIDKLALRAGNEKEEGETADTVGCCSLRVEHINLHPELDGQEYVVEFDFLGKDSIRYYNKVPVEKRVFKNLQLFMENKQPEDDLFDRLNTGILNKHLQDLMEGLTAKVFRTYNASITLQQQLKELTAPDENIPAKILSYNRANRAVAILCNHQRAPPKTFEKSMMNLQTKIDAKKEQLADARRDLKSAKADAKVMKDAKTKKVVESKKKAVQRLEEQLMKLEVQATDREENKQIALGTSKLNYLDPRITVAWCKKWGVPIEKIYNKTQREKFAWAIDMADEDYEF
Method: (§1) FIG. 4. Level of Top1-degradation predicts cell line sensitivity. (a) Cells treated with 25 μM of compound for indicated times followed by a 30 minute incubation with drug-free media. Cells were lysed with RIPA and Top1 levels assessed by Western Blot. (b) Degradation of Top1 results in a right-ward shift in the dose-response curve. Effect is most pronounced in Top1-poisons (Ph-6DNM-NH3, CPT) than Top1 catalytic inhibitor (6DNM-Pyr). Cell death measured by SRB assay after 72 hour of compound exposure (n≥3 biological replicates, error bars show SEM).
(§2) This difference in mechanism of action between Ph-6DNM-NH3 and 6DNM-Pyr may provide an explanation of the differences in cell line sensitivities between the different DNM derivatives. […] This downregulation serves as a resistance mechanism and the level of Top1 degradation is correlated with reduced sensitivity to CPT. To determine if a similar mechanism is responsible for the reduced sensitivity to Ph-6DNM-NH3 and its derivatives in certain cell lines, the effects of Ph-6DNM-NH3 and 6DNM-Pyr were compared to that of CPT in […] and BT-474, two cancer cell lines known to be deficient and proficient in Top1 degradation, respectively. Cells were treated with 50 μM Ph-6DNM-NH3, 6DNM-Pyr, or CPT for 2, 4, and 6 hours. Following a 30-minute incubation with drug-free media to allow for the reversal of any Top1cc formed, cells were lysed and Top1 concentrations assessed by Western blot (FIG. 4a).

Top1 [2] = target: T1, Top1; assay: Top1 degradation by Western blot, MDA-MB-231; assay type: cell-based; parameters: dose or concentration left out as unconfirmed; conditions: 4, and 6 hours, then 30-minute drug-free media
Method: as §1, §2

BT-474 = assay: Antiproliferative SRB assay, BT-474; assay type: cell-based; conditions: FIG. 4b, 72 hour
Excerpt: Topoisomerase inhibitors such as DOX are used as single agent and in combination therapy to treat a wide-range of cancer types.

[3] = system: MDA-MB-231 triple negative breast cancer cells; assay: Antiproliferative SRB assay, MDA-MB-231; assay type: cell-based; conditions: SRB assay
Method: FIG. 1. […] Cell death measured by SRB assay after 72 hour of compound exposure (n≥3 biological replicates, error bars show SEM). IC50 values given as mean±SEM from ≥3 biological replicates.
To investigate the feasibility of developing a class of antitumor antibiotics based upon the DNM scaffold, the ability of the DNM to exert an antiproliferative effect against MDA-MB-231 breast cancer cells was evaluated.

E. coli = assay: Antibacterial MIC, microbroth dilution, E. coli; assay type: cell-based
Method: (§3) To investigate this possibility, the antibacterial effects of the DNM derivatives was assessed against strains of E. coli, S. aureus, and MRSA using the microbroth dilution method (Table 2).

E. coli TopoIV = E. coli TopoIV (Escherichia coli, UniProt P0AFI2+P20083); assay: E. coli TopoIV decatenation assay; assay type: biochemical
E. coli TopoIV, sequence (P0AFI2 whole entry): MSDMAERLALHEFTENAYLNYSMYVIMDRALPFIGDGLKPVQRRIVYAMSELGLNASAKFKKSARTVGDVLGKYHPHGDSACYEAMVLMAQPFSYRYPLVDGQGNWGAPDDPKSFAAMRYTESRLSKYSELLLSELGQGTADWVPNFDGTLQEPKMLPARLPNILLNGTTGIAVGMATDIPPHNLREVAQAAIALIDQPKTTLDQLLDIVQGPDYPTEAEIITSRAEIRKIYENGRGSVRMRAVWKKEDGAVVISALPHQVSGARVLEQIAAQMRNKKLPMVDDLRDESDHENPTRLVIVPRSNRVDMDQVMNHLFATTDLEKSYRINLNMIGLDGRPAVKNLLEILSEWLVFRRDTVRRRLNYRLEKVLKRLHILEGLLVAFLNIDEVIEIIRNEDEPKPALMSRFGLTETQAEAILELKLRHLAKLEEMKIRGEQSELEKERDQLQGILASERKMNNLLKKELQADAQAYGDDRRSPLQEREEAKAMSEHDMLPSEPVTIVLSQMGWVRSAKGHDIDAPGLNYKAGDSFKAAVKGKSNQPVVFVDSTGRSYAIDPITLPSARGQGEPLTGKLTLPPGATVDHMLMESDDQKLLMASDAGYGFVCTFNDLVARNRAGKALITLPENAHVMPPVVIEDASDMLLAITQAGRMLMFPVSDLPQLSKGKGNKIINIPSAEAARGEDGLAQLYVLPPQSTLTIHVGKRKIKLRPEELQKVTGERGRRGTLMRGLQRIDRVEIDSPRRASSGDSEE
E. coli TopoIV, sequence (P20083 whole entry): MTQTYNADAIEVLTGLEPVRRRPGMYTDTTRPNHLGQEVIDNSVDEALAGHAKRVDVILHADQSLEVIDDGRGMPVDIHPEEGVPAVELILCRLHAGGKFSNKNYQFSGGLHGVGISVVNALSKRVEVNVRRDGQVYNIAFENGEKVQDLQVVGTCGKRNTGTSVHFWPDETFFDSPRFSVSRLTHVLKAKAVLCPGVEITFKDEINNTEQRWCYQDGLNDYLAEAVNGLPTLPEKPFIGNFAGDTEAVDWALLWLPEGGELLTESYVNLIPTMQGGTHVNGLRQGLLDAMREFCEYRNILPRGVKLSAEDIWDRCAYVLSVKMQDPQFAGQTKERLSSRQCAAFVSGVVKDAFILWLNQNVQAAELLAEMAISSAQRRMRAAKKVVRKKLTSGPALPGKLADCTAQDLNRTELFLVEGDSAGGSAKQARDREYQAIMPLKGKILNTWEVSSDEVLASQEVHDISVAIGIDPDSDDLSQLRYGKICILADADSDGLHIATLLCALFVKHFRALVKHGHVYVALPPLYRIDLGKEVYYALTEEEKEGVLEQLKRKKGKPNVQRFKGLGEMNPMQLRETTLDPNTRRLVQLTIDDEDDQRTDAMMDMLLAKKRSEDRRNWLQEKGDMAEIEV
Excerpt: (§4) FIG. 8. In vitro inhibitory activity of 6DNM-NH3, Ph-6DNM-NH3 against E. coli DNA gyrase and TopoIV.
(§5) DNM and its derivatives exert their antibacterial effects through inhibition of the DNA Gyrase.

Top2α = Top2α (Homo sapiens, UniProt P11388); assay: Top2α kDNA decatenation assay; assay type: biochemical; conditions: gel electrophoresis, FIG. 3a
Top2α, sequence (P11388 whole entry): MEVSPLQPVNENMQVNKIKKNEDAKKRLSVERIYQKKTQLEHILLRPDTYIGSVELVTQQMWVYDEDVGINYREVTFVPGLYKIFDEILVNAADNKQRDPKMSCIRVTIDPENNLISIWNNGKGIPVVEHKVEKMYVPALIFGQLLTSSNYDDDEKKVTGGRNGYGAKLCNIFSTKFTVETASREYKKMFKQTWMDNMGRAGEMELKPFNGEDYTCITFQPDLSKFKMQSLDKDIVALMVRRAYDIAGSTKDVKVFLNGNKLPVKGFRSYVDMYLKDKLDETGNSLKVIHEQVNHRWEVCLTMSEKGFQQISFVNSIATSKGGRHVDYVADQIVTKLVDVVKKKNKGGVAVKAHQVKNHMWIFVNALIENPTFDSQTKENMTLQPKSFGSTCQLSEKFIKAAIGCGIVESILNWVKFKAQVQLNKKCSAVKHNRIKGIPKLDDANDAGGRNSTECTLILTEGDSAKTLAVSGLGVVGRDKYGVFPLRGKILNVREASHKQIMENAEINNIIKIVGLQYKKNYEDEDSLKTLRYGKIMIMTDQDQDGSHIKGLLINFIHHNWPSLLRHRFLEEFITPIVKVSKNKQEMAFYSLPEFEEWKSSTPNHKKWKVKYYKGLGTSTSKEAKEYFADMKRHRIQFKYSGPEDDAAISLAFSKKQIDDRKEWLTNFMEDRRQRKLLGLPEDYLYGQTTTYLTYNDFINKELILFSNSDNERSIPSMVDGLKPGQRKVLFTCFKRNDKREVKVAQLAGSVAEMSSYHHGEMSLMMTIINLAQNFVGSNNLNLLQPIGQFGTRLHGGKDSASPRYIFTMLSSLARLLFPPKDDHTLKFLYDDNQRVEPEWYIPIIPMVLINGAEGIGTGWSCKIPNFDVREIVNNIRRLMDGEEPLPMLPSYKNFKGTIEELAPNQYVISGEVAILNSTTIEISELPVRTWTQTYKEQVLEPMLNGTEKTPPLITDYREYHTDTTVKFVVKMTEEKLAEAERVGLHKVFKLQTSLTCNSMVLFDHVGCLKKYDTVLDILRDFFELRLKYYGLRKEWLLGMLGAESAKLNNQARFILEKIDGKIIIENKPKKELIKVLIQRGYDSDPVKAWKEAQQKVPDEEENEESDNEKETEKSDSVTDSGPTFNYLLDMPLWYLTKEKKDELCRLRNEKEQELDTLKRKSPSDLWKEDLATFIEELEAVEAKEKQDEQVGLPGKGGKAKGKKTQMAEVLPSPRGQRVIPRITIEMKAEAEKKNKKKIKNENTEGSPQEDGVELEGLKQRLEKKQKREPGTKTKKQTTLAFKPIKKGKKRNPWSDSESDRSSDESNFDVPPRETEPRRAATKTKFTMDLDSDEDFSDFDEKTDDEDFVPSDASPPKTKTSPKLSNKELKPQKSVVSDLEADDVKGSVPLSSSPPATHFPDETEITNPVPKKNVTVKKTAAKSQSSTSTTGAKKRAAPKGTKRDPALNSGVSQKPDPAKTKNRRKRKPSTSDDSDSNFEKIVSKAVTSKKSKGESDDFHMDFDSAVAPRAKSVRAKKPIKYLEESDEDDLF
Excerpt: (§6) FIG. 3. DNM derivatives are dual Top1/Top2 inhibitors with different modes of inhibition. (a) Inhibition of decatenating ability of Top2α with increasing concentrations of ETP, 6DNM-NH3, 6DNM-Pyr, and Ph-6DNM-NH3. K, kinetoplast DNA; OC, open circular; R, relaxed. (b) Inhibition of relaxing ability of Top1 with increasing concentrations of CPT, 6DNM-NH3, 6DNM-Pyr, and Ph-6DNM-NH3. R, relaxed; S, supercoiled. (c) Detection of Top2a-DNA using the ICE Assay. Genomic DNA ([…]) of H460 cells treated with drugs (50 μM, 30 min) was applied to nitrocellulose membrane and immunoblotted for Top2a. (d) Detection of Top1-DNA adducts using ICE Assay. Same procedure as (c) using 1 μg of DNA. (e) Inhibition of ETP-induced poisoning of Top2a. H460 cells treated with indicated concentrations of inhibitor for 30 min prior to treatment with ETP (50 μM). Detection of Top2α as in (c).
FIG. 9. Mechanism of action studies: Topoisomerases form transient covalent complexes with DNA to modify DNA topology. Ph6DNM-NH3 and 6DNM-NH3 inhibit bacterial DNA gyrase and human topoisomerase II in vitro.
The ability of Ph-6DNM-NH3, 6DNM-NH3, and 6DNM-Pyr to inhibit Top2α was assessed using a decatenation assay. In this assay, Top2α is incubated with kinetoplast DNA (kDNA), a large network of catenated minicircles and maxicircles of DNA. As Top2α decatenates the kDNA, it releases supercoiled and relaxed DNA minicircles that are easily separated from the kDNA by gel electrophoresis.

Top1 [4] = target: T1, Top1; assay: Top1 DNA relaxation assay (pBR322); assay type: biochemical; conditions: supercoiled pBR322, FIG. 3b
Excerpt: as §6
To further investigate any mechanistic differences between these structurally related DNM analogues they were also evaluated against the other clinically-targeted mammalian topoisomerase, Top1, using a DNA relaxation assay in which purified Top1 relaxes supercoiled pBR322 and the two forms are separated by agarose gel electrophoresis.

MRSA = assay: Antibacterial MIC, microbroth dilution, MRSA; assay type: cell-based, S. aureus; conditions: Staphylococcus aureus, MRSA; microbroth dilution
Method: as §3

Top2cc = target: T2, Top2cc (Homo sapiens, UniProt P11388); assay: ICE assay for Top2α-DNA complexes in H460 cells; assay type: cell-based
T2 construct: endogenous in cells; host or cells: H460
T2 sequence (P11388 whole entry): as above
Excerpt: as §6
(§7) The in vivo complex of enzyme (ICE) assay can be used to distinguish poisons from catalytic inhibitors. The ICE assay consists of isolating the genomic DNA of cells treated with small molecules in a manner the preserves covalent DNA-protein complexes and applying it to nitrocellulose membranes. Because topoisomerase poisons stabilize the cleavage complexes, DNA-protein complexes can be detected by immunoblotting for specific topoisomerases, whereas catalytic inhibitors produce no such result. To determine if DNM derivatives are acting as poisons or catalytic inhibitors, H460 human lung cells were exposed to 50 μM of the Top2 poison ETP, Ph-6DNM-NH3, 6DNM-NH3, and 6DNM-Pyr and assessed for their ability to stabilize Top2cc. […] In a similar fashion, next investigated was the mode of Top1 inhibition using the ICE assay (FIG. 3b).

E. coli DNA Gyrase = E. coli DNA Gyrase (Escherichia coli, UniProt P0AES4+P0AES6); assay: E. coli DNA Gyrase supercoiling assay; assay type: biochemical
E. coli DNA Gyrase, sequence (P0AES4 whole entry, one chain of several): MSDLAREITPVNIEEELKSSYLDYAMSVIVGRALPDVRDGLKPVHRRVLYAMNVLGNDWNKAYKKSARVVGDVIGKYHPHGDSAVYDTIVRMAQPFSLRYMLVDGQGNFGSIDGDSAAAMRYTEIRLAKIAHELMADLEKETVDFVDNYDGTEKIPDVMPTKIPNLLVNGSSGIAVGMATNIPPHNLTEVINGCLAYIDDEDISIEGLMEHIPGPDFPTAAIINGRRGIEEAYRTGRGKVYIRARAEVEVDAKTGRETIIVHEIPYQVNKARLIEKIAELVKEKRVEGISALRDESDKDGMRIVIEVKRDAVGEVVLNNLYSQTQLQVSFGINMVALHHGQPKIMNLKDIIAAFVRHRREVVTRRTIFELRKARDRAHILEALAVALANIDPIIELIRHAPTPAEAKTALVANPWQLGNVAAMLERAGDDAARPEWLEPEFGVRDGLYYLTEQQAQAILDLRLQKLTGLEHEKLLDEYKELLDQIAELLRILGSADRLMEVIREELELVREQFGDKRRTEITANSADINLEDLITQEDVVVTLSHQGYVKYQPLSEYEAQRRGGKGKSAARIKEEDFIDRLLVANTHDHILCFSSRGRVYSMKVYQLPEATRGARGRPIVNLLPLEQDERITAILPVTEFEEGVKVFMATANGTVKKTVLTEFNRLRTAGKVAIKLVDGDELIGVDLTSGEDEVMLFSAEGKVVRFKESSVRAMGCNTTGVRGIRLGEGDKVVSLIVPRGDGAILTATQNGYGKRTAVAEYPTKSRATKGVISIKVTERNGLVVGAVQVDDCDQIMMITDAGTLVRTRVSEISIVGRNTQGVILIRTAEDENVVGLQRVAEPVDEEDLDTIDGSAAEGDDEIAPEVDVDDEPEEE
Excerpt: as §4, §5

Top1cc = target: T3, Top1cc (Homo sapiens, UniProt P11387); assay: ICE assay for Top1-DNA adducts in H460 cells; assay type: cell-based
T3 construct: endogenous in cells; host or cells: H460
T3 sequence (P11387 2-765 limits assumed): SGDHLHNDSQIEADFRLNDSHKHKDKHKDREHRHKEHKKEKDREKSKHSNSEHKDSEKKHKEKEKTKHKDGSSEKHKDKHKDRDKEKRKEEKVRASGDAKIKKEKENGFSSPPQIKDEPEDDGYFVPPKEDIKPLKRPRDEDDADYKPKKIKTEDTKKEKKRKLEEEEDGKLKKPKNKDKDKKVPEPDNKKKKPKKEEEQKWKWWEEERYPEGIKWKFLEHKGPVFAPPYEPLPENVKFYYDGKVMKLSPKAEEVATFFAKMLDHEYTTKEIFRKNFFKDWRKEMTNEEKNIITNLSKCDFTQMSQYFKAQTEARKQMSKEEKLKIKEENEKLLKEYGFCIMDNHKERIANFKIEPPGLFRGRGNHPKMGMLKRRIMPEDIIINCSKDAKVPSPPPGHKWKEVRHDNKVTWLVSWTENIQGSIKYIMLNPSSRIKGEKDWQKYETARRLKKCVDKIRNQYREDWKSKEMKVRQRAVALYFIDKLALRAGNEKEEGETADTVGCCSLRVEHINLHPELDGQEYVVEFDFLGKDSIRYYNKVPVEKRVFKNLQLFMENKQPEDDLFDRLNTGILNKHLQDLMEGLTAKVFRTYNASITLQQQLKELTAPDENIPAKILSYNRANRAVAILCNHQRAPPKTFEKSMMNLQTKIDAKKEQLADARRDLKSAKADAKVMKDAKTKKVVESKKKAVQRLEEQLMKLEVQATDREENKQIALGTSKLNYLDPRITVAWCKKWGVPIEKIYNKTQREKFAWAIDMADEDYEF
Excerpt: as §6, §7

S. aureus = assay: Antibacterial MIC, microbroth dilution, S. aureus; assay type: cell-based
Method: as §3

| Structure (SMILES) | Top1 levels by Western blot in BT-474 (Top1 [1]) | Top1 levels by Western blot in MDA-MB-231 (Top1 [2]) | Effectiveness in BT-474 after Top1 degradation (BT-474) | Antiproliferative effect against MDA-MB-231 cells ([3]; FIG. 1, 72 hour) | E. coli MIC (E. coli) | Inhibition of purified E. coli TopoIV (E. coli TopoIV) | Inhibition of decatenating function of Top2α (Top2α) | Inhibition of Top1 relaxation (Top1 [4]) | MIC (MRSA) | Accumulation of Top2cc (ICE assay) (Top2cc; 50 μM) | Effect on ETP-induced Top2cc (Top2cc; pre-treatment 30 minutes prior to ETP (50 μM)) | Inhibition of purified E. coli DNA Gyrase (E. coli DNA Gyrase) | Accumulation of Top1cc (ICE assay) (Top1cc; H460 cells, 50 μM, 30 min) | Mode of topoisomerase inhibition (Top1cc; in vitro and cell culture experiments taken together) | S. aureus MIC (S. aureus) | IC50 ([3]; 72 hour compound exposure, mean ± SEM, read-out: MDA-MB-231 IC50) |
| --- | --- | --- | --- | --- | --- | --- | --- | --- | --- | --- | --- | --- | --- | --- | --- | --- |
| CC[C@@]1(O)C(=O)OCc2c1cc1n(c2=O)Cc2cc3ccccc3nc2-1 [CPT, camptothecin, reference compound] | time-dependent decrease in the levels of Top1 | minimal differences in Top1 relative to untreated cells | nearly complete resistance | sensitive |  |  |  |  |  |  |  |  |  |  |  |  |
| Cc1cc(=O)n(C)c2c3c4c(cc12)c(C)cc(=O)n4C(CN)CO3 (stereo not shown) [Compound 9] |  |  |  |  | 0.5 µg/mL | able to inhibit | inhibit the decatenating function of Top2α in a dose-dependent manner | inhibit relaxation at submicromolar concentrations | 0.03 µg/mL (≈ 0.0922 µM) | only ETP treatment resulted in the accumulation of Top2cc | dose-dependent decrease in ETP-induced Top2cc | able to inhibit | neither 6DNM-NH3 nor 6DNM-Pyr, leads to the accumulation of Top1cc | dual Top1/Top2α catalytic inhibitors | 0.5 µg/mL | 220 ± 20 nM |
